Assay results reported in US20100317517A1, “HERBICIDE-SAFENER COMBINATION” (BAYER CROPSCIENCE AG, priority 2007, published 2010).
Several values for one entry are separate records, joined by “and”; a condition that tells them apart may be missing. Identical values can stand only once.

Legend:
Format in all cases: in vivo
Settings in all cases: no safener
Barley = test: Compatibility with crop plants, greenhouse, post-emergence, visual scoring
Protocol: (§1) Seeds or rhizome pieces of monocotyledonous and dicotyledonous weeds were placed in sandy loam soil in plastic pots, covered with soil and cultivated in a greenhouse under good growth conditions. Three weeks after sowing, the test plants were treated at the 2- to 4-leaf stage. The compounds according to the invention, formulated as wettable powders or as emulsion concentrates, were sprayed onto the green parts of the plants in various dosages at a water application rate of 100 to 800 I/ha (converted). After the test plants had been left to stand in the greenhouse for 3 to 4 weeks under optimum growth conditions, the effect of the preparations was scored visually in comparison to untreated controls.
(§2) In further greenhouse trials, seeds of a relatively large number of crop plants and weeds were placed into sandy loam soil and covered with soil. Some of the pots were immediately treated as described in section 1, the others were placed in a greenhouse until the plants had developed two to three true leaves and were then sprayed with various dosages of the herbicide/safener combinations according to the invention, as described in section 2. Four to five weeks after the application and standing time in the greenhouse, it was established by visual scoring that the herbicide/safener combinations tested, i.e. of 2-iodo-N-[(4-methoxy-6-methyl-1,3,5-triazin-2-yl)carbamoyl]benzenesulfonamide and the compounds of the formula (I) listed in table A, did, especially with the safeners of the compounds of the formulae S1-1, S1-6, S1-9, S2-1 and S3-1, benoxacor, furilazole, fluxofenim, not cause any damage to crop plants such as cotton, oilseed rape, sugar cane, sugar beet and also Gramineae crops such as barley, wheat, rye, millet, corn or rice when applied by the pre-emergence method or the post-emergence method.
(§3) The results of selected trials with respect to the crop plant compatibility are shown below in an exemplary manner using as an example safeners improving 2-iodo-N-[(4-methoxy-6-methyl-1,3,5-triazin-2-yl)carbamoyl]benzenesulfonamide (A-0) or its Na^+ salt (A-2) in various crop plants, i.e. wheat, barley and corn.

Corn [1] = test: as above
Protocol: as §1, §2, §3

Wheat = test: as above
Protocol: as §1, §2, §3

Corn [2] = test: Compatibility with crop plants, greenhouse, pre-emergence, visual scoring
Source text: Seeds or rhizome pieces of monocotyledonous and dicotyledonous weed plants were placed in sandy loam soil in cardboard pots and covered with soil. The active compounds (A) and (B), formulated as wettable powders or emulsion concentrates, were then applied to the surface of the covering soil as aqueous suspensions or emulsions in different dosages at a water application rate of 100 to 800 I/ha (converted).
After the treatment, the pots were placed in a greenhouse and kept under good growth conditions for the weeds. Visual scoring of the plant damage or emergence damage was carried out after the test plants had emerged after a test period of 3 to 4 weeks, in comparison to untreated controls. […] The combinations of 2-iodo-N—[(4-methoxy-6-methyl-1,3,5-triazin-2-yl)carbamoyl]benzenesulfonamide and compounds of the formula (I) mentioned in table A especially with the safeners of the compounds of the formulae S1-1, S1-9, S2-1 and S3-1 have very good synergistic herbicidal activity against harmful plants such as Sinapis alba, Chrysanthemum segetum, Avena sativa, Stellaria media, Echinochloa crus-galli, Lolium multiflorum, Setaria viridis, Abutilon theophrasti, Amaranthus retroflexus and Panicum miliaceum when applied by the pre-emergence method at an application rate of 100 g or less of active substance per hectare. […]

[3] = active compound 6.25 g of ai/ha
[4] = active compound 12.5 g of ai/ha

SMILES: COc1nc(C)nc(NC(=O)NS(=O)(=O)c2ccccc2I)n1 [Compound A-0, 2-iodo-N-[(4-methoxy-6-methyl-1,3,5-triazin-2-yl)carbamoyl]benzenesulfonamide]
- Damage to the crop plant in % (Barley; [3]): 20% and 10%
- Damage to the crop plant in % (Barley; [4]): 20%
- Damage to the crop plant in % (Corn [1]; [3]): 20%
- Damage to the crop plant in % (Corn [1]; active compound 25 g of ai/ha): 50%
- Damage to the crop plant in % (Wheat; [3]): 20%
- Damage to the crop plant in % (Wheat; [4]): 20%
- Damage to the crop plant in % (Corn [2]; [4]): 65%
- Damage to the crop plant in % (Corn [2]; active compound 50 g of ai/ha): 60%
